Experimental data published in patent US12404304B1, “Telomerase reverse transcriptase (TERT) expression enhancing compounds and methods for using the same” (Sierra Sciences, LLC, priority 2007, dated 2025).

Experiments:
[1] = test system: human TERT expression (hTERT mRNA); experiment: Quantitative real-time RT-PCR of hTERT mRNA expression (Ct, transcripts) in compound-treated cells; type: cell-based
Outline: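 Read-out is cycle threshold, the cycle at which probe fluorescence released by Taq 5′-nuclease activity crosses a set level; Ct falls as hTERT mRNA rises. cDNA of treated and untreated cells was compared, with starting transcripts quantified against a known-cDNA standard curve.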

viable cells in culture = experiment: Cell viability assay (CellTiter-Glo Luminescent Cell Viability Assay, ATP quantitation, percent of vehicle control)

| SMILES | Average Number of hTERT Transcripts [1] | Average Cell Viability after 24 Hours (% DMSO) (viable cells in culture) |
| --- | --- | --- |
| CN1CCN(c2ccc(CNC(=O)c3cc(-c4cccs4)on3)cc2)CC1 [compound 1500] | 17.14 | 110.86 |
| COc1cc(CCNC(=O)c2cc(-c3cccs3)on2)cc(OC)c1 [compound 1501] | 24.13 | 99.31 |
| COc1ccc(CCNC(=O)c2cc(-c3cccs3)on2)cc1O [compound 1502] | 28.74 | 91.65 |
| Cc1cc(CNC(=O)c2cc(-c3cccs3)on2)no1 [compound 1503] | 28.94 | 108.11 |
| CN(C)S(=O)(=O)c1ccc(C(=O)Nc2nc(-c3ccccn3)cs2)cc1 [compound 1504] | 40.27 | 76.43 |
| O=C(Nc1nc(-c2ccccn2)cs1)c1cc(Cl)sc1Cl [compound 1505] | 43.28 | 70.89 |
| O=C(NCCN1CCOCC1)c1cc(-c2ccccc2)on1 [compound 1506] | 52.39 | 84.31 |
| CCCCOCCCNC(=O)c1cc(-c2cccs2)on1 [compound 1507] | 58.76 | 102.58 |
| O=C(NCCOc1ccccc1)c1cc(-c2cccs2)on1 [compound 1508] | 59.45 | 94.22 |
| O=C(NCCN1CCNC1=O)c1cc(-c2cccs2)on1 [compound 1509] | 72.08 | 73.34 |
| CN(CC1CCCO1)S(=O)(=O)c1ccc(C(=O)Nc2nc(-c3ccccn3)cs2)cc1 (stereo not shown) [compound 1510] | 76.03 | 83.99 |
| CC(C)CCNC(=O)c1cc(-c2cccs2)on1 [compound 1511] | 88.76 | 75.76 |
| Cc1ccc(S(=O)(=O)CC(=O)Nc2ncc(-c3ccccn3)s2)cc1 [compound 1512] | 102.66 | 81.39 |
| Cc1ccn(CCCNC(=O)c2cc(-c3cccs3)on2)n1 [compound 1513] | 102.76 | 82.67 |
| CN1CCN(CCCNC(=O)c2cc(-c3cccs3)on2)CC1 [compound 1514] | 102.98 | 98.72 |
| CN(C)CCCCNC(=O)c1cc(-c2cccs2)on1 [compound 1515] | 113.63 | 96.89 |
| Cn1c(-c2nnc(SCC(=O)NCc3nc4ccccc4n3C)o2)cc2ccccc21 [compound 1516] | 127.39 | 87.09 |
| CSCCNC(=O)c1cc(-c2cccs2)on1 [compound 1517] | 140.89 | 112.40 |
| O=C(NCCCN1CCCC1=O)c1cc(-c2cccs2)on1 [compound 1518] | 302.69 | 104.12 |
| Cc1cnc(CNC(=O)c2cc(-c3cccs3)on2)cn1 [compound 1519] | 303.81 | 110.34 |
| COc1cc(CCNC(=O)c2cc(-c3cccs3)on2)ccc1O [compound 1520] | 322.93 | 98.51 |

| SMILES | Average Number of hTERT Transcripts [1] | Average Cell Viability after 24 Hours (% DMSO) (viable cells in culture) |
| --- | --- | --- |
| O=C(NCCc1ccccn1)c1cc(-c2cccs2)on1 [compound 1521] | 329.90 | 106.64 |
| O=C(NCCCn1ccnc1)c1cc(-c2ccccc2)on1 [compound 1522] | 345.10 | 80.72 |
| O=C(NCCc1ccncc1)c1cc(-c2cccs2)on1 [compound 1524] | 562.51 | 103.34 |
| O=C(OCc1ccc(Cl)cc1Cl)c1ccc(-c2nnc(-c3ccccc3)o2)cc1 [compound 1525] | 7.73 | 83.30 |
| CCOc1cccc(/C=N/NC(=O)CNc2ccc(C)cc2)c1O [compound 1526] | 8.14 | 79.56 |
| O=C(N/N=C/c1c(O)ccc2ccccc12)c1ccc(CO)nc1 [compound 1527] | 15.53 | 89.01 |
| CCN(CC)c1ccc(/C=N/NC(=O)C2CC2c2ccccc2)c(O)c1 (stereo not shown) [compound 1528] | 24.18 | 69.89 |
| COc1cccc(/C=N/NC(=O)C2CC2c2ccccc2)c1O (stereo not shown) [compound 1529] | 29.94 | 102.67 |
| C/C(=N\NC(=O)c1ccccc1O)c1ccccc1O [compound 1530] | 30.46 | 96.99 |
| C/C(=N\NC(=O)c1c(O)ccc2ccccc12)c1ccccc1C(=O)O [compound 1531] | 32.70 | 110.91 |
| Cc1c(OS(=O)(=O)c2ccccc2)ccc2c3c(c(=O)oc12)CCCC3 [compound 1533] | 35.76 | 99.57 |
| CS(=O)(=O)N1CCN(c2ccc(NC(=O)c3cccc(OCc4ccccc4)c3)cc2)CC1 [compound 1534] | 3.18 | 90.05 |
| Cc1ccc(S(=O)(=O)Nc2ccc([N+](=O)[O-])cc2)cc1 [compound 1535] | 3.69 | 88.02 |
| COC(=O)COc1ccc(NC(=O)c2ccccc2I)cc1 [compound 1536] | 7.34 | 65.12 |
| COC(=O)COc1ccc(NC(=O)c2cccc(C)c2)cc1 [compound 1537] | 9.58 | 67.92 |
| CC(C)c1cccc(C(C)C)c1NC(=O)c1ccc(OCC(=O)OC2CCCCC2)cc1 [compound 1538] | 10.53 | 74.17 |
| Cc1ccc(C)c(NC(=O)c2ccccc2NS(=O)(=O)c2cc([N+](=O)[O-])ccc2C)c1 [compound 1539] | 37.11 | 65.11 |
| S=C(Nc1ccc(Oc2ccccc2)cc1)Nc1ccc(Cl)cc1Cl [compound 1540] | 9.11 | 68.10 |
| COc1ccc(NC(=S)NCc2ccco2)c(OC)c1 [compound 1541] | 3.41 | 104.75 |
| CCN(Cc1ccncc1)C(=O)c1cccs1 [compound 1542] | 3.43 | 111.82 |
